Measurements reported in patent US6849421B2, “Assays for compounds modulating human serine protease C-E” (Ortho-McNeil Pharmaceutical, Inc., priority 1999, dated 2005).
Ends that are not written are not given here. * marks the point of attachment. pNA = O=[N+]([O-])c1ccc(N*)cc1

T1: activated protease C-E-6XHIS (Homo sapiens, UniProt Q9GZN4)
T1 construct: made in house; host or cells: Sf9 insect cells (baculovirus, pFastBac1)
T1 sequence (Q9GZN4 with tags, fused parts or gaps): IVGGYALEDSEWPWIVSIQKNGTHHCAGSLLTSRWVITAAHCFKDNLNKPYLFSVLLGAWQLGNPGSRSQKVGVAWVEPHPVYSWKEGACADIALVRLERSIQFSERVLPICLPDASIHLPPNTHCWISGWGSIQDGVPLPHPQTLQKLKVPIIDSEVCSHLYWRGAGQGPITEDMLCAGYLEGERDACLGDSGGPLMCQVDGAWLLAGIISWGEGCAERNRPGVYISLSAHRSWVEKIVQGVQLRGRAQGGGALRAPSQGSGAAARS

B1: PFEK-protease C-E-6XHIS zymogen: secreted recombinant zymogen of human serine protease C-E catalytic domain with FLAG, enterokinase site and 6XHIS tag, from Sf9 cells (protein)
chain: MDSKGSSQKSRLLLLLVVSNLLLCQGVVSDYKDDDDVDAAALAAPFDDDDKIVGGYALEDSEWPWIVSIQKNGTHHCAGSLLTSRWVITAAHCFKDNLNKPYLFSVLLGAWQLGNPGSRSQKVGVAWVEPHPVYSWKEGACADIALVRLERSIQFSERVLPICLPDASIHLPPNTHCWISGWGSIQDGVPLPHPQTLQKLKVPIIDSEVCSHLYWRGAGQGPITEDMLCAGYLEGERDACLGDSGGPLMCQVDGAWLLAGIISWGEGCAERNRPGVYISLSAHRSWVEKIVQGVQLRGRAQGGGALRAPSQGSGAAARSSRHHHHHH

Assays:
[1] = target: T1, activated protease C-E-6XHIS; test: Chromogenic amidolytic activity assay, release of para-nitroaniline (pNA) from synthetic substrates; type: biochemical; conditions: recombinant activated protease C-E-6XHIS; substrate 500 uM; 10 mM Tris-HCl pH 7.8, 25 mM NaCl, 25 mM imidazole; 37° C., 90 minutes; 405 nm; N.A. = No Activity
Description: Eluted protein concentration was determined by a Micro BCA Kit (Pierce, Rockford, Ill.) using bovine serum albumin as a standard. Amidolytic activities of the activated protease C-E-6XHIS was monitored by release of para-nitroaniline (pNA) from the synthetic substrates indicated in Table 1. The chromogenic substrates used in these studies were all commercially available (Bachem California Inc., Torrance, Pa.; American Diagnostica Inc., Greenwich, Conn.; Kabi Pharmacia Hepar Inc., Franklin, Ohio). Assay mixtures contained chromogenic substrates at 500 uM and 10 mM Tris-HCl (pH 7.8), 25 mM NaCl, and 25 mM imidazole. Release of pNA was measured over 90 minutes at 37° C. on a micro-plate reader (Molecular Devices, Menlo Park, Calif.) with a 405 mn absorbance filter. The initial reaction rates (Vmax, mOD/min) were determined from plots of absorbance versus time using Softmax (Molecular Devices, Menlo Park, Calif.). The specific activities (nmole pNA produced/min/μg protein) of the activated protease C-E-6XHIS for the various substrates are presented in Table 1.
Amidolytic activities of the activated serine proteases are monitored by release of para-nitroaniline (pNA) from synthetic substrates that are commercially available (Bachem California Inc., Torrance, Pa.; American Diagnostica Inc., Greenwich, Conn.; Kabi Pharmacia Hepar Inc., Franklin, Ohio). Assay mixtures contain chromogenic substrates in 500 uM and 10 mM TRIS-HCl (pH 7.8), 25 mM NaCl, and 25 mM imidazole. Release of pNA is measured over 120 min at 37° C. on a micro-plate reader (Molecular Devices, Menlo Park, Calif.) with a 405 nm absorbance filter. The initial reaction rates (Vmax, mOD/min) are determined from plots of absorbance versus time using Softmax (Molecular Devices, Menlo Park, Calif.). […] Although in the present case chromogenic activity is monitored by an increase in absorbance, fluorogenic assays or other methods such as FRET to measure proteolytic activity as mentioned above, can be employed. […]

[2] = Chromogenic amidolytic activity of the purified unactivated zymogen; type: biochemical, human; conditions: not cleaved with enterokinase, same chromogenic substrates

| Molecule | Specific Activity [1] | chromogenic amidolytic activity [2] |
| --- | --- | --- |
| H—D—Lys(CBO)—Pro—Arg—pNA | 0.002 ± 0.000 nmole pNA produced/min/μg protein | – |
| H—D—Pro—HHT—Arg—pNA | 0.008 ± 0.001 nmole pNA produced/min/μg protein | – |
| Phe-Arg-pNA | 0.058 ± 0.006 nmole pNA produced/min/μg protein | – |
| B1 | – | No measurable chromogenic amidolytic activity |
